Test results reported in patent US20050100507A1, “Chemotactic peptide antagonists for imaging sites of inflammation” (Bracco Imaging S.p.A., priority 1998, published 2005).
Square brackets hold non-standard residues; d marks the D form. Ends that are not written are not given here. * marks the point of attachment. Acetyl(9-fluorenyl) = O=C(CC1c2ccccc2-c2ccccc21)*; N,N‑diphenylcarbamoyl = O=C(N(c1ccccc1)c1ccccc1)*; Adamantane1carbonyl = O=C(C12CC3CC(CC(C3)C1)C2)*; N‑phenyl‑N‑methylcarbamoyl = CN(C(=O)*)c1ccccc1; N,N‑diethylcarbamoyl = CCN(CC)C(=O)*; Cyclopropanecarbonyl = O=C(C1CC1)*; Nle = CCCC[C@H](N)C(=O)O

Key:
Rat FPR = target: T1, Rat FPR (Rattus norvegicus, UniProt D4A7Q2); assay: Competition binding with 6 nM 3H-fMLF to elicited rat PMNs; conditions: 6 nM 3H-fMLF, result in words; for competition binding of N-terminal modified NleLFK peptides (FIG. 8): peptides at 1 uM and 10 uM; for inhibition of 3H-fMLF binding at 10 uM compared with iso-BocMLFK (FIG. 8): peptide 10 uM
T1 construct: endogenous in cells; host or cells: glycogen-elicited peritoneal neutrophils (PMNs) of Sprague-Dawley rats
T1 sequence (D4A7Q2 1-355): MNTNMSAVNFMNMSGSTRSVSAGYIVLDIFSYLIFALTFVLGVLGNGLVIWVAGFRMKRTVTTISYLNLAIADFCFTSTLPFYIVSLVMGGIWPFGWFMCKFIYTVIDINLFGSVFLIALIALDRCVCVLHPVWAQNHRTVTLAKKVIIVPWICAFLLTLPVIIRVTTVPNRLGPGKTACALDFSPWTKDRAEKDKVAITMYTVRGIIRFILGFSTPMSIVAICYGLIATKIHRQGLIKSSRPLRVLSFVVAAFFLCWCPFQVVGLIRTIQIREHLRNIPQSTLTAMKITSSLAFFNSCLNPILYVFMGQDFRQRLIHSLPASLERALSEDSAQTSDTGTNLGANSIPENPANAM
Method: (§1) Animals were sacrificed via administration of CO2 4 hours following peritoneal injection of 10 mL of 0.5% (w/v) oyster glycogen warmed to room temperature. Leukocyte harvesting via peritoneal lavage was performed using 20 mL of Hanks' buffered salt solution (HBSS−) containing 10 mM ethylene-diaminetetra-acetic acid (EDTA) disodium salt followed by a second lavage with 10 mL of HBSS− containing 10 mM EDTA. Exactly the same technique was performed on all rats with washes of the peritoneum prior to aspiration of samples approximating 1 minute. The volume of fluid recovered from each rat was approximately 20-25 mL and bloody lavages visibly containing significant red blood cell (RBC) populations were discarded.
(§2) Neutrophils isolated by peritoneal lavage were washed twice with 1 mL of HBSS− (without calcium chloride, magnesium chloride and magnesium sulfate) and centrifuged for ten minutes at 2000 rpms following each wash. PMNs utilized in functional assays were centrifuged at 25° C. while those used in binding assays were centrifuged at 4° C. to prevent internalization. A cold H2O RBC lysis was then performed with the addition of 9 mL of sterile ice-cold H2O and 1 mL of phosphate buffered saline (PBS) solution containing 0.1 M phosphate buffer, 0.027 M KCl and 1.37 M NaCl following resuspension of the sample in 1 mL of HBSS. Centrifugation was subsequently performed for ten minutes at 1600 rpms. White blood cell (WBC) differential stain containing saline, 2% acidic acid and phenol violet dye was used to identify the neutrophil population and trypan blue exclusion was used to determine viability of cells. As previously reported, 98% of leukocytes were neutrophils and approximately 95% of the cells were viable (Chen et al., 1996).
Competition binding assays for N-terminal capping groups and Re-libraries were conducted with 6 nM ^3H-fMLP in addition to the unlabelled competing analogue added at 1.0 uM and 10 uM to each well. […] Total binding in the competition assays was assessed in the presence of 1.0×10^6 PMNs per sample while non-specific binding was determined in the absence of cells. Each condition was performed in quadruplicate. Total activity added to each sample was determined from cpms obtained from a sample containing 6 nM ^3H-fMLF. Data was expressed as specific binding in fmols and converted to percent of total ^3H-fMLF binding (% control).
After a 1 hour incubation period at 4° C., the samples were harvested with the Tomtec Mach III Cell Harvester by vacuum aspiration onto 1.5 um pore size Skatron glass-fibre filter mats pre-treated with 0.1% polyethylenimine (w/v) for approximately 24 hours. Sample wells received three consecutive 12 second washes with 0.9% saline solution and 5 mL of liquid scintillation fluid was added to collected filters. Filters were counted for 2 minutes in the Beckman β-counter following exposure to scintillation fluid for 15 hours. Data was expressed in terms of specific binding in fmols converted to percent of total ^3H-fMLF binding (% control).
(§3) The curve-fitting program Prism was used to calculate KD, IC50 and EC50 values by fitting data to the one-site binding equations A, B and C respectively. • A. Equation: One site binding (hyperbola) Y=Bmax*X/(KD+X) • B. Equation: One site competition Y=Bottom+(Top−Bottom)/(1+10^(X−LogIC50)); with x=log (concentration) and y=binding • C. […] Additionally, Graph fit software was used to perform Scatchard analysis of saturation binding data and to confirm KD and Bmax values generated by Prism software.

elicited rat PMNs [1] = assay: Myeloperoxidase release in elicited rat PMNs co-stimulated with 0.1 uM fMLF; format: cell-based; conditions: for antagonist function on MPO release in fMLF stimulated rat PMNs: 0.1 uM fMLF, inhibition at 10 uM, result in words; for % Control MPO release (1 uM capping group + 0.1 uM fMLF): 1 uM test peptide + 0.1 uM fMLF; for % Control MPO release (1 uM capping group + 0.1 uM fMLF) / % Control MPO Release (10 uM capping group + 0.1 uM fMLF): ± S.E.M.; for % Control MPO Release (10 uM capping group + 0.1 uM fMLF): 10 uM test peptide + 0.1 uM fMLF
Method: as §1, §2
0.5×10^6 PMNs per sample were incubated in 96-well Millipore Multiscreen 0.65 um filter plates. […] Following a 30 minute incubation period at room temperature, the supernatant was collected into a 96-well polypropylene plate with the Millipore vacuum apparatus. A stock solution of o-phenylenediamine (OPD) was made to contain 2.5 mg of OPD, 5 ul of H2O2 and 10 mL HBSS+ and supernatant samples were subsequently incubated with 50 uL of OPD solution. The reaction was stopped after 2 minutes by the addition of 2.5M H2SO4. Photometric analysis was performed with the Thermomax Microplate Reader with optical density (O.D.490) values being read at a wavelength of 490 nm. Absorbance was measured against a blank containing 150 μl of HBSS+ which was subtracted from wells containing cells and the various treatments. MPO release was expressed as a percentage of the total release of myeloperoxidase in control wells containing cells ±fMLF.

elicited rat PMNs [2] = format: cell-based; conditions: MPO release, PMNs without fMLF, ± S.E.M.; for % Control (1 uM): test peptide 1 uM; for % Control (10 uM): test peptide 10 uM
Method: as §1, §2
0.5×10^6 PMNs per sample were incubated in 96-well Millipore Multiscreen 0.65 um filter plates. In a final volume of 150 uL, 50 uL of the respective fMLP analogues (10 uM to 1 pM) and/or fMLP ([…]) were incubated with isolated PMNs pre-treated with cytochalasin B (5 ug/mL) for 10 minutes. Following a 30 minute incubation period at room temperature, the supernatant was collected into a 96-well polypropylene plate with the Millipore vacuum apparatus. A stock solution of o-phenylenediamine (OPD) was made to contain 2.5 mg of OPD, 5 ul of H2O2 and 10 mL HBSS+ and supernatant samples were subsequently incubated with 50 uL of OPD solution. The reaction was stopped after 2 minutes by the addition of 2.5M H2SO4. Photometric analysis was performed with the Thermomax Microplate Reader with optical density (O.D.490) values being read at a wavelength of 490 nm. Absorbance was measured against a blank containing 150 μl of HBSS+ which was subtracted from wells containing cells and the various treatments. MPO release was expressed as a percentage of the total release of myeloperoxidase in control wells containing cells ±fMLF.
as §3

| Substance | competition binding of N-terminal modified NleLFK peptides (FIG. 8) (Rat FPR) | antagonist function on MPO release in fMLF stimulated rat PMNs (elicited rat PMNs [1]) | % Control MPO release (1 uM capping group + 0.1 uM fMLF) (elicited rat PMNs [1]) [% control] | % Control MPO Release (10 uM capping group + 0.1 uM fMLF) (elicited rat PMNs [1]) [% control] | % Control (1 uM) (elicited rat PMNs [2]) [% control] | % Control (10 uM) (elicited rat PMNs [2]) [% control] | inhibition of 3H-fMLF binding at 10 uM compared with iso-BocMLFK (FIG. 8) (Rat FPR) | competition binding of N-terminal modified NleLFK peptides (FIG. 8) (Rat FPR; listed as 17) | competition binding of N-terminal modified NleLFK peptides (FIG. 8) (Rat FPR; listed as cycloproylcarbonyl-NleLFK) | competition binding of N-terminal modified NleLFK peptides (FIG. 8) (Rat FPR; listed as 6) | competition binding of N-terminal modified NleLFK peptides (FIG. 8) (Rat FPR; listed as N,N-diethylcarbamoyl-NleLFK) |
| --- | --- | --- | --- | --- | --- | --- | --- | --- | --- | --- | --- |
| Capping Group 13: Adamantylcarbonyl N-terminal capping group attached to peptide NleLFK (Adamantane1carbonyl-[Nle]LFK) | did not significantly decrease the amount of ^3H-fMLF binding | exhibited antagonist function in fMLF stimulated cells | 131.6 ± 30.9 | 128.6 ± 40.9 | 70.5 ± 14.9 | 71.7 ± 11.2 | – | – | – | – | – |
| Capping Group 16: Fluorenylmethylcarbonyl N-terminal capping group attached to peptide NleLFK ({Acetyl(9-fluorenyl)}-[Nle]LFK) | did not significantly decrease the amount of ^3H-fMLF binding | exhibited antagonist function in fMLF stimulated cells | 161.7 ± 6.2 | 108.9 ± 28.5 | 84.1 ± 27.6 | 59.9 ± 19.0 | – | – | – | – | – |
| Capping Group 10: N-phenyl-N-methylcarbamoyl N-terminal capping group attached to peptide NleLFK ({N‑phenyl‑N‑methylcarbamoyl}-[Nle]LFK) | did not significantly decrease the amount of ^3H-fMLF binding | exhibited antagonist function in fMLF stimulated cells | 171.2 ± 6.3 | 121.3 ± 23.9 | 94.7 ± 20.4 | 68.0 ± 17.4 | – | – | – | – | – |
| cycloproylcarbonyl-NleLFK (Cyclopropanecarbonyl-[Nle]LFK) [Capping Group 17] | – | – | – | – | 108.0 ± 14.5 | 91.8 ± 16.3 | inhibited ^3H-fMLF binding to a degree comparable with known antagonist iso-BocMLFK | do not nullify binding affinity | inhibit ^3H-fMLF binding | – | – |
| Capping Group 18: N,N-diphenylcarbamoyl N-terminal capping group attached to peptide NleLFK ({N,N‑diphenylcarbamoyl}-[Nle]LFK) | do not nullify binding affinity | – | 321.6 ± 8.6 | 185.9 ± 15.7 | 142.7 ± 8.8 | 125.2 ± 1.5 | inhibited ^3H-fMLF binding to a degree comparable with known antagonist iso-BocMLFK | – | – | – | – |
| N,N-diethylcarbamoyl-NleLFK ({N,N‑diethylcarbamoyl}-[Nle]LFK) [Capping Group 6] | – | inhibited MPO release | 283.3 ± 25.1 | 249.9 ± 6.2 | 113.8 ± 14.3 | 109.6 ± 3.3 | – | – | – | did not significantly decrease the amount of ^3H-fMLF binding | inhibit ^3H-fMLF binding |
